Test results from US8791132B2, “Compounds and methods for treatment of hypertension” (Medivation Technologies, Inc., priority 2011, dated 2014).

Key:
[1] = target: T1, human recombinant adrenergic α2B receptor (Homo sapiens, UniProt P18089); assay: Radioligand binding, adrenergic α2B ([3H]Rauwolscine); details: 0.03 μM compound; for inhibition at 0.03 µM: read-out: Percentage inhibition of ligand binding, Adrenergic α2B; for Percentage inhibition of ligand binding, Adrenergic α2B: 0.03 µM
T1 construct: expressed in transfected cells; host or cells: CHO-K1
T1 sequence (P18089 1-450): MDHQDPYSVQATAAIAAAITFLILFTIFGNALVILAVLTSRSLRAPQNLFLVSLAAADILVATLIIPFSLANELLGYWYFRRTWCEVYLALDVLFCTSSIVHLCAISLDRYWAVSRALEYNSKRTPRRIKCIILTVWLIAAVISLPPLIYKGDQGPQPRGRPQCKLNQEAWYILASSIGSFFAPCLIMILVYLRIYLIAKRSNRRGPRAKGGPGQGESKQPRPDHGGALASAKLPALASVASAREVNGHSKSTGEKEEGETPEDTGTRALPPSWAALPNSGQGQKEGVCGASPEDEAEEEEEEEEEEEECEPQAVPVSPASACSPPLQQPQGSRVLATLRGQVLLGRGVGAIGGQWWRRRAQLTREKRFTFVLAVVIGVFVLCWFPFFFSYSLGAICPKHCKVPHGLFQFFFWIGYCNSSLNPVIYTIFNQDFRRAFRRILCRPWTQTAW
Outline: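 Membranes from CHO-K1 cells expressing human recombinant α2B, in 50 mM Tris-HCl pH 7.4, 12.5 mM MgCl2, 1 mM EDTA, 0.2% BSA, incubated with compound and 2.5 nM [3H]Rauwolscine, 60 min, 25 °C.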

[2] = target: T2, human recombinant adrenergic α2A receptor (Homo sapiens, UniProt P08913); assay: Radioligand binding, adrenergic α2A ([3H]MK-912); details: 0.1 μM compound; for inhibition at 0.1 µM: read-out: Percentage inhibition of ligand binding, Adrenergic α2A; for Percentage inhibition of ligand binding, Adrenergic α2A: 0.1 µM
T2 construct: expressed in transfected cells; host or cells: insect Sf9 cells
T2 sequence (P08913 1-465): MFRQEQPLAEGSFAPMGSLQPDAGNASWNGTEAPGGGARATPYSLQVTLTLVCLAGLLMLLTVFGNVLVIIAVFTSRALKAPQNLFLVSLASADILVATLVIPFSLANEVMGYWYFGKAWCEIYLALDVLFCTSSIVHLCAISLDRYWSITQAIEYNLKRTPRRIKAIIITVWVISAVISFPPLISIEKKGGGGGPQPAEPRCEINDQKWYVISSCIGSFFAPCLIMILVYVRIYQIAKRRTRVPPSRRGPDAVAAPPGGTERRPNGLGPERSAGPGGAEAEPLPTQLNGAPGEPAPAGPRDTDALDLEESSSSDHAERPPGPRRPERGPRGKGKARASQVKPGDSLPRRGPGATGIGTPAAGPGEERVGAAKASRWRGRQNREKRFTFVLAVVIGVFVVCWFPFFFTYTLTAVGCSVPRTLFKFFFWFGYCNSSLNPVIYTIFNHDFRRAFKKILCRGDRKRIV
Outline: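 Sf9-expressed receptor was incubated with compound for 60 min at 25 °C in modified Tris-HCl buffer, pH 7.4. Nonspecific binding was taken as that remaining with 10 μM WB-4101.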

[3] = target: T3, rat adrenergic α1B receptor (Rattus norvegicus, UniProt P15823); assay: Radioligand binding, adrenergic α1B ([3H]Prazosin); details: 0.1 μM compound; for inhibition at 0.1 µM: read-out: Percentage inhibition of ligand binding, Adrenergic α1B; for Percentage inhibition of ligand binding, Adrenergic α1B: 0.1 µM
T3 construct: rat adrenergic α1B receptor obtained from Wistar Rat liver; from tissue; host or cells: Wistar rat liver
T3 sequence (P15823 1-515): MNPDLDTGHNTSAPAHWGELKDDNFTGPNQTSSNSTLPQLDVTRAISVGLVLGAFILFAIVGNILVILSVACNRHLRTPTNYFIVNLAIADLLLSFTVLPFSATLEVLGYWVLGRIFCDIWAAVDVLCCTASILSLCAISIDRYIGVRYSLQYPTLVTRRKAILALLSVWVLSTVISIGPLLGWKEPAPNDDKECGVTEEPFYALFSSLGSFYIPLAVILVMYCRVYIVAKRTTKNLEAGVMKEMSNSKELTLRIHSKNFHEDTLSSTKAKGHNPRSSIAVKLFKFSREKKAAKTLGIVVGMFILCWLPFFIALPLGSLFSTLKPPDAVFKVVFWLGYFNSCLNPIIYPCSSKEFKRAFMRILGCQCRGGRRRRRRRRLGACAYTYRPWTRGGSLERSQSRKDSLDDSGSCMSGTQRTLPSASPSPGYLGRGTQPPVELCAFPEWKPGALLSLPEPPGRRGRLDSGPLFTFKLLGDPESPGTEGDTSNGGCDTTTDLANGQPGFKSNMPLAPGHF
Outline: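 Incubation ran 60 min at 25 °C in Tris-HCl buffer (50 mM, pH 7.4, 0.5 mM EDTA) with Wistar rat liver α1B receptor. 10 μM phentolamine set non-specific binding.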

Row | inhibition at 0.03 µM [1] [%] | inhibition at 0.1 µM [2] [%] | inhibition at 0.1 µM [3] [%] | Percentage inhibition of ligand binding, Adrenergic α2B [1] [%] | Percentage inhibition of ligand binding, Adrenergic α2A [2] [%] | Percentage inhibition of ligand binding, Adrenergic α1B [3] [%] | Compound
1 | 96 | 49 | 74 |  |  |  | C/C(=C\n1c2c(c3cc(C)ccc31)CN(C)CC2)c1ccncc1 [II-2]
2 | 4 | 9 | 2 |  |  |  | Cc1cc2c3c(n(CC(C)(O)c4cccnc4)c2cn1)CCN1CCCC31 (stereo not drawn) [II-5]
3 | 100 | 52 | 95 |  |  |  | Cc1ccc2c(c1)c1c(n2CC(c2cnccn2)N(C)C)CCN2CCCC12 (stereo not drawn) [II-7, dimethyl-[2-(9-methyl-1,2,3,4,5,10c-hexahydro-3a,6-diaza-cyclopenta[c]fluoren-6-yl)-1-pyrazin-2-yl-ethyl]-amine]
4 | 70 | 9 | 6 |  |  |  | CCNC(Cn1c2c(c3cc(C)ccc31)CN(C)CC2)c1ccncc1 (stereo not drawn) [II-8, [2-(2,8-dimethyl-1,2,3,4-tetrahydro-pyrido[4,3-b]indol-5-yl)-1-pyridin-4-yl-ethyl]-ethyl-amine]
5 | 78 | 7 | 30 |  |  |  | Cc1ccc2c(c1)c1c(n2CC(NC2CCCC2)c2ccncc2)CCN(C)C1 (stereo not drawn) [II-9, cyclopentyl-[2-(2,8-dimethyl-1,2,3,4-tetrahydro-pyrido[4,3-b]indol-5-yl)-1-pyridin-4-yl-ethyl]-amine]
6 | 47 | 10 | 7 |  |  |  | Cc1ccc2c(c1)c1c(n2CC(NC(C)C)c2ccncc2)CCN(C)C1 (stereo not drawn) [II-10, [2-(2,8-dimethyl-1,2,3,4-tetrahydro-pyrido[4,3-b]indol-5-yl)-1-pyridin-4-yl-ethyl]-isopropyl-amine]
7 |  |  |  | 70 | 25 | 63 | Cc1ccc2c(c1)c1c(n2CC(N)c2ccc(F)cc2)CCN(C)C1 (stereo not drawn) [II-11, 2-(2,8-dimethyl-3,4-dihydro-1H-pyrido[4,3-b]indol-5(2H)-yl)-1-(4-fluorophenyl)ethanamine]
8 |  |  |  | 65 | 11 | 18 | CNC(Cn1c2c(c3cc(C)ccc31)CN(C)CC2)c1ccc(F)cc1 (stereo not drawn) [II-12, 2-(2,8-dimethyl-3,4-dihydro-1H-pyrido[4,3-b]indol-5(2H)-yl)-1-(4-fluorophenyl)-N-methyl ethanamine]
9 | 73 | 9 | 9 |  |  |  | Cc1ccc2c(c1)c1c(n2CC(NC2CCC2)c2ccncc2)CCN(C)C1 (stereo not drawn) [II-13, cyclobutyl-[2-(2,8-dimethyl-1,2,3,4-tetrahydro-pyrido[4,3-b]indol-5-yl)-1-pyridin-4-yl-ethyl]-amine]
10 | 39 | 11 | 20 |  |  |  | Cc1ccc2c(c1)c1c(n2CC(C)(OC(=O)C(C)(C)C)c2cccnc2)CCN(C)C1 (stereo not drawn) [II-16a, 2,2-dimethyl-propionic acid 2-(2,8-dimethyl-1,2,3,4-tetrahydro-pyrido[4,3-b]indol-5-yl)-1-methyl-1-pyridin-3-yl-ethyl ester]
11 | 7 | 4 | 8 |  |  |  | Cc1ccc2c(n1)c1c(n2CC(C)(O)c2cccnc2)CCN2CCCC12 (stereo not drawn) [II-17]
12 | 21 | 8 | 8 |  |  |  | Cc1ccc2c(c1)c1c(n2CC(C)(OC(=O)c2ccncc2)c2cccnc2)CCN(C)C1 (stereo not drawn) [II-19]
13 | 54 | 9 | 11 |  |  |  | CN1CCc2c(c3cc(CO)ccc3n2CC(O)c2ccncc2)C1 (stereo not drawn) [II-60, 2-(8-hydroxymethyl-2-methyl-1,2,3,4-tetrahydro-pyrido[4,3-b]indol-5-yl)-1-pyridin-4-yl-ethanol]
14 | 37 | 5 | 14 |  |  |  | CC(O)(Cn1c2c(c3cc(Cl)ccc31)CNCC2)c1ccncc1 (stereo not drawn) [II-62, 1-(8-chloro-1,2,3,4-tetrahydro-pyrido[4,3-b]indol-5-yl)-2-pyridin-4-yl-propan-2-ol]
15 | 90 | 39 | 55 |  |  |  | C=CCN1CCc2c(c3cc(C)ccc3n2CC(O)c2ccncc2)C1 (stereo not drawn) [II-63, 2-(2-allyl-1,2,3,4-tetrahydro-8-methylpyrido[4,3-b]indol-5-yl)-1-(pyridin-4-yl)ethanol]
16 | 54 | -3 | 23 |  |  |  | Cc1ccc2c(c1)c1c(n2CC(O)c2ccncc2)CCN(CCO)C1 (stereo not drawn) [II-64, 2-[2-(2-hydroxy-ethyl)-8-methyl-1,2,3,4-tetrahydro-pyrido[4,3-b]indol-5-yl]-1-pyridin-4-yl-ethanol]
17 | 25 | 12 | 10 |  |  |  | Cc1ccc2c(c1)c1c(n2CC(O)c2ccncc2)CCN(CC(=O)O)C1 (stereo not drawn) [II-65, [5-(2-hydroxy-2-pyridin-4-yl-ethyl)-8-methyl-1,3,4,5-tetrahydro-pyrido[4,3-b]indol-2-yl]-acetic acid]
18 | 43 | -11 | 7 |  |  |  | CN1CCc2c(c3cc(OC(F)(F)F)ccc3n2CC(O)c2ccncc2)C1 (stereo not drawn) [II-67, 2-(2-methyl-8-trifluoromethoxy-1,2,3,4-tetrahydro-pyrido[4,3-b]indol-5-yl)-1-pyridin-4-yl-ethanol]
19 | 17 | 5 | 12 |  |  |  | CN1CCc2c(c3cc(C(C)(C)C)ccc3n2CC(O)c2ccncc2)C1 (stereo not drawn) [II-68, 2-(8-tert-butyl-2-methyl-1,2,3,4-tetrahydro-pyrido[4,3-b]indol-5-yl)-1-pyridin-4-yl-ethanol]
20 | 14 | 11 | 45 |  |  |  | Cc1ccc2c(c1)c1c(n2CC(O)c2ccncc2)CN2CCC1C2 (stereo not drawn) [II-69]
21 | 47 | 25 | 30 |  |  |  | CC1c2c(c3cc(Cl)ccc3n2CC(O)c2ccncc2)CCN1C (stereo not drawn) [II-72]
22 | 33 | 28 | 34 |  |  |  | Cc1ccc2c(c1)c1c(n2CC(O)c2ccncc2)C(C)N(C)CC1 (stereo not drawn) [II-73]
23 | 18 | 10 | 11 |  |  |  | CCC1c2c(c3cc(C)ccc3n2CC(O)c2ccncc2)CCN1C (stereo not drawn) [II-74]
24 | 35 | 15 | 8 |  |  |  | Cc1ccc2c(c1)c1c(n2CC(O)c2ccncc2)CCN(CCCO)C1 (stereo not drawn) [II-75, 3-(3,4-dihydro-5-(2-hydroxy-2-(pyridin-4-yl)ethyl)-8-methyl-1H-pyrido[4,3-b]indol-2(5H)-yl)propan-1-ol]
25 | -9 | 1 | -11 |  |  |  | CN1CCc2c(c3cccnc3n2CC(O)c2ccncc2)C1 (stereo not drawn) [II-78]

Row | Compound | inhibition at 0.03 µM [1] [%] | inhibition at 0.1 µM [2] [%] | inhibition at 0.1 µM [3] [%] | Percentage inhibition of ligand binding, Adrenergic α2B [1] [%] | Percentage inhibition of ligand binding, Adrenergic α2A [2] [%] | Percentage inhibition of ligand binding, Adrenergic α1B [3] [%]
26 | CN1C2CCC1c1c(n(CC(O)c3ccncc3)c3ccc(Cl)cc13)C2 (stereo not drawn) [II-66] | 46 | 0 | 27 |  |  | 
